Common to all, as to type: in vivo
Experiment [1] relates to large (Lg) crabgrass (Digitaria sanguinalis). Put plainly: Test B pre-/postemergence plant response. The settings on record: Digitaria sanguinalis, 240 h, read-out: Plant response rating, Crabgrass, Large; for pest or weed control at 125 g/ha: 125 g ai/ha; for pest or weed control at 500 g/ha: 500 g ai/ha; for pest or weed control at 1000 g/ha: 1000 g ai/ha. In a few lines: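 Seeds in loam–sand blend given preemergence soil spray; separately, plants at one- to two-leaf stage (2–10 cm) sprayed postemergence, compounds in non-phytotoxic solvent with surfactant. Injury rated visually versus untreated controls after ~10 days in greenhouse, 0 (no effect) to 100 (complete control).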

Experiment [2] concerns waterhemp_RES2 (ALS & HPPD resistant common waterhemp, Amaranthus rudis). Put plainly: Test F postemergence plant response. The settings on record: scale 0 to 100. The protocol:
(§1) At the same time, plants from these crop and weed species and also waterhemp_RES1, (ALS & Triazine resistant common waterhemp, Amaranthus rudis), and waterhemp_RES2, (ALS & HPPD resistant common waterhemp, Amaranthus rudis) were treated with postemergence applications of test chemicals formulated in the same manner. Plants ranged in height from 2 to 18 cm for postemergence treatments (1- to 4-leaf stage).
(§2) Treated plants and controls were maintained in a greenhouse for 14 to 21 days, after which time all species were compared to controls and visually evaluated. Plant response ratings, summarized in Table F, are based on a scale of 0 to 100 where 0 is no effect and 100 is complete control. A dash (-) response means no test result.

Experiment [3] has as its system waterhemp_RES1 (ALS & Triazine resistant common waterhemp, Amaranthus rudis). Put plainly: Test F postemergence plant response. The settings on record: scale 0 to 100. The protocol:
as §1, §2

Setting [4] is: post-emergence, postemergence, 0 to 100 scale, 0 no effect, 100 complete control.
[5] abbreviates: post-emergence, Postemergence, 0 to 100 scale (0 no effect, 100 complete control).
[6] abbreviates: pre-emergence, Preemergence, 0 to 100 scale where 0 is no effect and 100 is complete control.
Setting [7] is: pre-emergence, Preemergence, 0 to 100 scale (0 no effect, 100 complete control).

SMILES strings stand for the structures. Like-named read-outs stand apart in the source and are kept apart here.

Consider `FC(F)(F)c1cc(-c2ccccc2Oc2ncc(Cl)cn2)on1` [Compound 63, 5-chloro-2-[2-[3-(trifluoromethyl)-5-isoxazolyl]phenoxy]pyrimidine], for which the pest or weed control at 125 g/ha was 80% in experiment [1] (setting [4]) and 100% in experiment [1] (setting [6]). Moreover, the pest or weed control at 500 g/ha in experiment [1] (setting [5]) came out at 90%; in experiment [1] (setting [6]), 100%.

For the molecule `Cc1ccc(Oc2ncc(Cl)cn2)c(-c2ccnc(C(F)(F)F)c2)c1` [Compound 24, 5-chloro-2-[4-methyl-2-[2-(trifluoromethyl)-4-pyridinyl]phenoxy]pyrimidine], the pest or weed control at 125 g/ha in experiment [1] (setting [4]) worked out at 80%; in experiment [1] (setting [6]), 100%. Moreover, the pest or weed control at 500 g/ha in experiment [1] (setting [5]) is 90%; in experiment [1] (setting [7]), 100%.

With `Clc1ccc(-c2c(Cl)cccc2Oc2ncc(Cl)cn2)nc1` [Compound 23, 5-chloro-2-[3-chloro-2-(5-chloro-2-pyridinyl)phenoxy]pyrimidine], the results for the pest or weed control at 125 g/ha in experiment [1] (setting [4]) and in experiment [1] (setting [6]) were 10% and 40%, respectively. The pest or weed control at 500 g/ha worked out at 50% in experiment [1] (setting [5]) and 80% in experiment [1] (setting [7]). Further, the figures for the pest or weed control at 1000 g/ha in experiment [1] (setting [5]) and in experiment [1] (setting [7]) were 60% and 100%, respectively.

As to `FC(F)(F)c1ccc(-c2ccccc2Oc2ncc(Cl)cn2)nc1` [Compound 27, 5-chloro-2-[2-[5-(trifluoromethyl)-2-pyridinyl]phenoxy]pyrimidine], the pest or weed control at 125 g/ha in experiment [1] (setting [4]) was found to be 20%; in experiment [1] (setting [6]) it was 80%. Moreover, the results for the pest or weed control at 500 g/ha in experiment [1] (setting [5]) and in experiment [1] (setting [6]) were 90% and 100%, respectively.

`FC(F)(F)c1ccnc(-c2ccccc2Oc2ncc(Cl)cn2)c1` [Compound 25, 5-chloro-2-[2-[4-(trifluoromethyl)-2-pyridinyl]phenoxy]pyrimidine]: the pest or weed control at 125 g/ha in experiment [1] (setting [4]) is 10%; in experiment [1] (setting [6]), 50%. In addition, the pest or weed control at 500 g/ha in experiment [1] (setting [5]) was 50%; in experiment [1] (setting [6]), 100%.

For `FC(F)(F)c1nccc(-c2ccccc2Oc2ncc(Br)cn2)n1` [Compound 21, 4-[2-[(5-bromo-2-pyrimidinyl)oxy]phenyl]-2-(trifluoromethyl)pyrimidine], the pest or weed control at 125 g/ha is 0% in experiment [1] (setting [4]) and 60% in experiment [1] (setting [6]). In addition, the values for the pest or weed control at 500 g/ha in experiment [1] (setting [5]) and in experiment [1] (setting [7]) were 30% and 100%, respectively.

`Cc1ccc(Oc2ncc(Cl)cn2)c(-c2ccc(C(F)(F)F)nc2)c1` [Compound 22, 5-chloro-2-[4-methyl-2-[6-(trifluoromethyl)-3-pyridinyl]phenoxy]pyrimidine]: the pest or weed control at 125 g/ha in experiment [1] (setting [4]) and in experiment [1] (setting [6]) was 0% in each case. The pest or weed control at 500 g/ha in experiment [1] (setting [5]) was 10%; in experiment [1] (setting [7]) it was 0%.

Regarding `Cc1cc(-c2ccccc2Oc2ncc(Cl)cn2)on1` [Compound 58], the “Plant response rating, Waterhemp_RES2” value in experiment [2] (8 g ai/ha Postemergence) came to 65; in experiment [2] (16 g ai/ha Postemergence), 60; in experiment [2] (31 g ai/ha Postemergence), 70; in experiment [2] (62 g ai/ha Postemergence) it was 75; in experiment [2] (125 g ai/ha Postemergence) it was 80. Moreover, the “Plant response rating, Waterhemp_RES1” value is listed as 10 in experiment [3] (8 g ai/ha Postemergence); 20 in experiment [3] (16 g ai/ha Postemergence); 65 in experiment [3] (31 g ai/ha Postemergence); 70 in experiment [3] (62 g ai/ha Postemergence); 75 in experiment [3] (125 g ai/ha Postemergence).

In the case of `FCc1cc(-c2ccccc2Oc2ncc(Cl)cn2)no1` [Compound 32, 5-chloro-2-[2-[5-(fluoromethyl)-3-isoxazolyl]phenoxy]pyrimidine], the pest or weed control at 125 g/ha was 60% in experiment [1] (setting [4]) and 100% in experiment [1] (setting [6]). The pest or weed control at 500 g/ha is 90% in experiment [1] (setting [5]) and 100% in experiment [1] (setting [6]).

On to `FC(F)(F)Oc1ccc(-c2ccccc2Oc2ncc(Cl)cn2)cc1` [Compound 42, 5-chloro-2-[[4′-(trifluoromethoxy)[1,1′-biphenyl]-2-yl]oxy]pyrimidine], for which the pest or weed control at 125 g/ha in experiment [1] (setting [4]) amounted to 30%; in experiment [1] (setting [6]), 50%. In addition, the pest or weed control at 500 g/ha in experiment [1] (setting [5]) was determined as 50%; in experiment [1] (setting [6]) it was 90%.
